From patent publication US11744876B2, “Immunomodulator antibody drug conjugates and uses thereof” (Sutro Biopharma, Inc., priority 2019, dated 2023)
Read-outs that look alike come from different tables or passages of the source.

How the values were obtained:
Skov3 (Muc16−) = experiment: In vitro cytotoxicity (Cell Titer-Glo, 120 hrs) on Skov3 cells; assay type: cell-based; details: Homo sapiens, SK-OV-3, Table 7, Experiment #2, read-out: Cell Killing on Skov3 (Muc16−) EC50
Excerpt: (§1) FOLR1-positive KB or Igrov1 cells, FOLR1-negative A549 cells, Her2 positive SKBR3 cells and Her2 negative MDA-MB-468 cells, Muc16-positive OVCAR3 and Mucl6-negative Skov3 were maintained in Ham's F-12: high glucose DMEM (50:50) (Corning) supplemented with 10% heat-inactivated fetal bovine serum (Corning), 1% Penicillin/Streptomycin (Corning) and 2 mmol/L-glutamax (Thermo Fisher Scientific). Adherent cells were washed twice with PBS, harvested with Acutase and counted by the Vi-CELL cell viability analyzer. A total of 625 cells were seeded in each well of a 384-well flat bottom white polystyrene plate. ADC, ISAC, and iADC conjugates were formulated at 2-fold starting concentration in the cell culture medium and filtered through MultiScreenHTS 96-Well Filter Plates (Millipore; Billerica, Mass.). Serial dilutions of test samples (1:3 serial dilution starting from 100 nM) was added into treatment wells. Assay plates were cultured at 37° C. in a CO2 incubator for 120 hrs before assay. For cell viability measurement, 30 μL of Cell Titer-Glo® reagent (Promega Corp. Madison, Wis.) was added into each well, and plates were processed as per product instructions. Relative luminescence was measured on an ENVISION® plate reader (Perkin-Elmer; Waltham, Mass.). Relative luminescence readings were converted to percent viability using untreated cells as controls. […]

SKBR3 (Her2+) = experiment: In vitro cytotoxicity (Cell Titer-Glo, 120 hrs) on SKBR3 cells; assay type: cell-based; details: Homo sapiens, SK-BR-3, Table 6, Experiment #2, read-out: Cell Killing on SKBR3 (Her2+) EC50
Excerpt: as §1

FolR1 + Igrov1 Cells = experiment: In vitro cytotoxicity (Cell Titer-Glo, 120 hrs) on Igrov1 cells; assay type: cell-based
Excerpt: as §1

MDA-MB-468 (Her2-) = experiment: In vitro cytotoxicity (Cell Titer-Glo, 120 hrs) on MDA-MB-468 cells; assay type: cell-based; details: Homo sapiens, Table 6, Experiment #2, read-out: Cell Killing on MDA-MB-468 (Her2-) EC50
Excerpt: as §1

B cells = experiment: Immune cell activation in PBMCs with KB cells: B cells (CD86 on CD14-/Lin+/HLA-DR+ cells); assay type: cell-based, human; details: Example 29; PBMCs from two donors with KB cells, two days
Description: (§2) This example evaluates the ability of three homogeneous iADCs to stimulate the activation of different immune cell populations (monocyte, B cell, and DCs). Free TLR7 agonists, free hemiasterlin warhead, anti-FolRα-ADC, and the corresponding ISACs were used as controls in the experiment. PBMCs from two healthy donors were isolated using similar protocol as descripted in previous examples. PBMCs were treated with three homogeneous iADC and controls in the presence of FolR1 positive KB cells for two days. The immune cells were then stained with different cell population markers and activation markers. Monocyte activation was indicated as increase of CD86 expression on CD14+ cells. B cell activation was indicated as increase of CD86 expression on CD14-/Lin+/HLA-DR+ cells. Dendritic cells (DC) activation was indicated as increase of CD86 expression on CD14-/Lin-/HLA-DR+/CD123+ cells.

monocytes = experiment: Immune cell activation in PBMCs with KB cells: monocytes (CD86 on CD14+ cells); assay type: cell-based, human; details: Example 29; PBMCs from two donors with KB cells, two days
Description: as §2

A549 (FolR1−) = experiment: In vitro cytotoxicity (Cell Titer-Glo, 120 hrs) on A549 cells; assay type: cell-based; details: Homo sapiens, Table 21, Example 28, homogeneous iADCs
Excerpt: as §1

Dendritic cells (DC) = experiment: Immune cell activation in PBMCs with KB cells: DCs (CD86 on CD14-/Lin-/HLA-DR+/CD123+ cells); assay type: cell-based, human; details: Example 29; PBMCs from two donors with KB cells, two days
Description: as §2

KB (FolR1+) = experiment: In vitro cytotoxicity (Cell Titer-Glo, 120 hrs) on KB cells; assay type: cell-based; details: Homo sapiens, Table 21, Example 28, homogeneous iADCs
Excerpt: as §1

monocytes in human PBMCs = experiment: Monocyte activation (% CD86+ within CD14+) in isolated monocytes or PBMCs co-cultured with FolR1 positive KB cells; assay type: cell-based; details: 48 hr co-culture with FolR1 positive KB cells
Description: PBMCs were isolated from human blood donors by Leukosep tube and Nycoprep 1.077 buffer according to the manufacture's recommendation. CD14+ monocytes were isolated by immunomagnetic negative selection from fresh PBMCs (StemCell #19359—EasySep Human Monocyte Isolation Kit). PBMCs and monocytes were cultured in RPMI supplemented with 10% heat-inactivated fetal bovine serum from Hyclone, 1% Penicillin/Streptomycin and 2 mmol/L-glutamax before the assay. On the day of assay, 300,000 of PBMC or 30,000 of monocytes in 40 ul of culture medium were seeded in 96-well cell culture plates. 40 ul of the test articles (formulated at 3× of starting concentration, 1:10 serial dilution) and 40 ul of 10,000 Oregon green stained target cells were then added into the well. The cell mixtures were co-cultured in the presence of test articles and 10 ug/ml LPS-RS for 48 hr. […] Cells were washed, fixed with 2% PFA overnight, and read on the Attune NxT cytometer (Thermo Fisher). […]
PBMCs were isolated from human blood donors by Leukosep tube and Nycoprep 1.077 buffer according to the manufacture's recommendation. […] Cells were washed, fixed with 2% PFA overnight, and read on the Attune NxT cytometer (Thermo Fisher). […]

With `CCCCc1nc2c(N)nc3ccccc3c2n1Cc1ccc(CN)cc1` [Compound 4] the EC50 (Skov3 (Muc16−)) was greater than 100 nM, the EC50 (SKBR3 (Her2+)) was greater than 100 nM and the EC50 (FolR1 + Igrov1 Cells; Homo sapiens, IGROV-1, 120 h, read-out: Cell Killing on FolR1 + Igrov1 Cells EC50) was greater than 100 nM. The EC50 (MDA-MB-468 (Her2-)) was greater than 100 nM.
With `CCCCc1nc2c(N)nc3ccccc3c2n1OCCCCN` [Compound 5] the EC50 (FolR1 + Igrov1 Cells; Experiment #1, 120 hrs, NK = no cell killing detected) was greater than 100 nM.
With `CCCCCNc1nc(N)nc2ccn(Cc3ccc(CN4CC5(CNCCO5)C4)cc3OC)c12` [Compound 7, 5-(4-((5-oxa-2,8-diazaspiro[3.5]nonan-2-yl)methyl)-2-methoxybenzyl)-N4-pentyl-5H-pyrrolo[3,2-d]pyrimidine-2,4-diamine] the “activation of B cells, in words” value (B cells) was “much more potent”, the “activation of monocytes, in words” value (monocytes) was “much more potent” and the EC50 (A549 (FolR1−)) was greater than 100 nM. The “activation of DCs, in words” value (Dendritic cells (DC)) was “much more potent” and the EC50 (KB (FolR1+)) was greater than 100 nM.
For `CCCCc1nc2c(N)nc3ccccc3c2n1Cc1ccc(CNC(=O)OCc2ccc(NC(=O)[C@H](CCCNC(N)=O)NC(=O)[C@@H](NC(=O)CCOCCOCCOCCOCCNC(=O)CCC(=O)N3Cc4ccccc4C#Cc4ccccc43)C(C)C)cc2)cc1` [Compound 401], the “monocyte activation, in words” value (monocytes in human PBMCs) was “activated monocyte”.
